Structures can show the parent of a compound that is named as a salt.
Assays:
[1] = First crossover study: absorption of phenylephrine, PE HCl alone vs Maxigesic PE (28 adult subjects); type: in vivo; conditions: human, 10 mg; phenylephrine in blood plasma, mean, oral tablets, n = 28 adult humans
[2] = Third cross-over study: Maxiclear PE 2.5 (two tablets) vs Sudafed PE (6 adult subjects); type: in vivo; conditions: human, oral, 10 mg; phenylephrine in plasma, mean, untransformed data, n = 6 adult humans

Cmax [1]: 0.874 ng/mL
Tmax [1]: 42 min
Cmax [2]: 1.13 ng/mL
Tmax [2]: 42 min
Compound: CNC[C@H](O)c1cccc(O)c1 [10 mg phenylephrine hydrochloride, phenylephrine hydrochloride]
